Measurements published in US20100063041A1, “NOVEL PHENYLPROPIONIC ACID DERIVATIVES AS PEROXISOME PROLIFERATOR-ACTIVATED GAMMA RECEPTOR MODULATORS, METHOD OF THE SAME, AND PHARMACEUTICAL COMPOSITION COMPRISING THE SAME” (priority 2007, published 2010).

Molecular target: T1, PPAR-γ and Trap220 (Homo sapiens, UniProt P37231)
T1 construct: expressed in transfected cells; host or cells: CHO-K1 (CCL-61, ATCC)
T1 sequence (P37231 238-503 limits assumed): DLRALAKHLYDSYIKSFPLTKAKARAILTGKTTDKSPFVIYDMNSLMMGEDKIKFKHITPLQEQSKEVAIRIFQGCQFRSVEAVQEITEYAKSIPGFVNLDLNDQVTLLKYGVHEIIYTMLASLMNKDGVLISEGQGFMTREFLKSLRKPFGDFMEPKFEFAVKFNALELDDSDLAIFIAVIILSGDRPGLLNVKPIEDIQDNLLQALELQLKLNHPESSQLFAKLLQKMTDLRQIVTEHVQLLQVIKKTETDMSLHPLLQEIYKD
Experiment: binding capacity with Trap220 (mammalian two-hybrid assay) in CHO-K1 cells
Type: cell-based
Details: compared to the positive control drug rosiglitazone, FIG. 1
Description: Following induction of transient intracellular expression of PPAR-γ and Trap220, the binding capacity of the inventive compounds to a cofactor Trap220 after activation of PPAR-γ by the action of the inventive compounds was evaluated (mammalian two-hybrid assay).
For this purpose, a […] ovary cell line CHO-K1 (CCL-61, ATCC) was used as a test cell line. DNA constructs used in this assay were an expression vector pVP16 (Clontech) constructed to express a fusion of a human PPAR-γ2 ligand-binding domain with an activation domain of the […], and an expression vector pM (Clontech) constructed to express a fusion of human Trap220 with the GAL4 DNA-binding domain. Rosiglitazone maleate (Alcon Biosciences Private Limited), which is clinically used as a PPAR-γ agonist, was employed as a control drug.
The CHO-K1 cells were transiently transfected with two DNA constructs expressing the chimeric receptors and DNA constructs comprising 5 copies of the GAL4 DNA-binding domain and capable of inducing expression of firefly luciferase or Renilla luciferase using a Lipofectamine Plus reagent (Invitrogen, USA). Subsequent processes were carried out in the same manner as in the transactivation assay. The experimental results were expressed as an increase of the responsiveness vs. the negative control group with no addition of the drug.

## CCO[C@@H](Cc1ccc(OCc2sc(-c3ccc(-c4cc(C)no4)cc3)cc2C)cc1)C(=O)[O-].[Na+] [Example 43, sodium (S)-2-ethoxy-3-(4-((3-methyl-5-(4-(3-methylisoxazol-5-yl)phenyl)thiophen-2-yl)methoxy)phenyl)propanoate]
  responsiveness (binding capacity with Trap220): reduced responsiveness
